# Results reported in EP1891940B1, “Intrasynovial formulations of stanozolol” (Acme Drugs S.r.l., priority 2006, dated 2008).
# How the values were obtained:
# [1] = Persistence of stanozolol in the joint / synovial fluid after intrasynovial injection; format: in vivo, horses and humans
# Source text: A single intrasynovial injection of said formulations allows the stanozolol to be brought up to and maintained at pharmacologically active concentrations in the joint for 6-7 days, a period which is long enough to produce evident clinical benefits and fully compatible with long-term treatments.
# Two examples of formulation of a typical preparation containing stanozolol administrable by the intrasynovial route to horses and humans, which remains in the synovial fluid for 5-7 days, one set out below: • a) Active ingredient: micronised stanozolol (having a prevalent population of particles with a diameter of less than 20 µm) 5 mg; Water for injectables q.s. to 1 ml. • b) Active ingredient: Micronised Stanozolol: (having a prevalent population of particles with diameter of less than 20 µm) 5 mg/ml
# Solubility in water = format: physicochemical; details: crystalline substance
# Source text: The formulations according to the invention of stanozolol in an aqueous carrier are therefore aqueous suspensions, and it is necessary to prevent the suspended crystals of the drug from causing mechanical lesions such as abrasions and erosions despite the pressures and friction generated by the movement of the joint on the surfaces of the cartilage and synovial membrane.
structure (smiles),measurement,setting,value
C[C@]12Cc3c[nH]nc3C[C@@H]1CC[C@@H]1[C@@H]2CC[C@@]2(C)[C@H]1CC[C@]2(C)O [stanozolol],maintained at pharmacologically active concentrations in the joint,[1]; single intrasynovial injection of the micronised aqueous suspension formulations,6-7 days
same,remains in the synovial fluid,"[1]; typical preparation with micronised stanozolol 5 mg/ml, intrasynovial route, horses and humans",5 to 7 days
same,solubility in water,Solubility in water,insoluble in water
